{
  "source": "patent US11771679B2",
  "about": "“Composition containing hesperetin and synergistic hypoglycemic application thereof” (ZHENGZHOU FRUIT RESEARCH INSTITUTE, CHINESE ACADEMY OF …, priority 2021, dated 2023)",
  "target": "T1, α-glucosidase (Saccharomyces cerevisiae, UniProt P53341)",
  "T1 construct": "purchased Sigma",
  "T1 sequence (P53341 whole entry)": "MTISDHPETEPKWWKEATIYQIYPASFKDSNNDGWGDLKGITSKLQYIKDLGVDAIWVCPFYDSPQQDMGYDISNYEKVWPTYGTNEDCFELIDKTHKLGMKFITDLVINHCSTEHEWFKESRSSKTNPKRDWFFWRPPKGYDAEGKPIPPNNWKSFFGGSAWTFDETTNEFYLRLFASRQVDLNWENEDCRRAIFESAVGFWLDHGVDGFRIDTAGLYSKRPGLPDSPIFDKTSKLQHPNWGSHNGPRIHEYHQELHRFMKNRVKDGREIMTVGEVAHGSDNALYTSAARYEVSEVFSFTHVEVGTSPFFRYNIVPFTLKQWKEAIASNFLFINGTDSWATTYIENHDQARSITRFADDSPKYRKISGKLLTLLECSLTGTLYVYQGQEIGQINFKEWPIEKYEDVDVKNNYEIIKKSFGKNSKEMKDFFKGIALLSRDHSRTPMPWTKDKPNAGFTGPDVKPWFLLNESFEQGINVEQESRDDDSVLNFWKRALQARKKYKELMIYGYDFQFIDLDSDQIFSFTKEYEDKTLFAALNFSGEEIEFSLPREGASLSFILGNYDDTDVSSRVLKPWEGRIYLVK",
  "assay": "α-glucosidase inhibition test (pNPG substrate, OD 405 nm); CI calculated with CompuSyn (Chou-Talalay)",
  "type": "biochemical",
  "details": "for Inhibition rate: single compound",
  "excerpt": "[drawing 3] • α-glucosidase (coming from Saccharomyces cerevisiae, Sigma); • 4-nitrophenyl-α-D-glucopyranoside (pNPG, TOKYO Chemica Industry Co., LTD); • acarbose (Acarbose, TOKYO Chemica Industry Co., LTD); • hesperetin, galangin, and formononetin (BEIJING Solarbio Technology Co., LTD); • Millipore Simplicity water purification system (Millipore, France); • sodium phosphate salt buffer solution (pH 6.8, 0.1 mol L-1); and • microplate reader TECAN infinite M200 PRO (Teacan Group Ltd., Swizerland).\nan α-glucosidase solution with a concentration being 0.25 U/mL and a substrate p-nitrophenyl-α-D-glucopyranoside (pNPG) solution with a concentration being 5 mmol/mL were prepared by using a PBS buffer solution (0.1 mol/L pH 6.8).\n100 μL of sample solution was added to each hole, then 40 μL of α-glucosidase (0.25 U/mL) was added, reacted for 15 min at 37° C., and then 60 μL of substrate p-nitrophenyl-α-D-glucopyranoside (5 mmol/mL) was added; and after placed at 37° C. to react for 15 min, a microplate reader measured at a wave length of 405 nm.\nCI values are calculated according to CompuSyn software to evaluate synergistic effect among drugs.",
  "data": [
    {"compound": "COc1c(-c2ccc(O)c(O)c2)oc2cc(O[C@@H]3OC(C)[C@@H](O)C(O)C3O)cc(O)c2c1=O", "note": "(stereo partly shown) [Vincetoxicoside]", "values": [
      {"measurement": "inhibition at 12 µg/mL", "setting": "read-out: Inhibition rate", "result": "48.7 ± 2.1", "unit": "%"}
    ]},
    {"compound": "O=C(/C=C/c1ccc(O)cc1)c1ccc(O)cc1O", "note": "[Isoliquiritigenin]", "values": [
      {"measurement": "inhibition at 4 µg/mL", "setting": "read-out: Inhibition rate", "result": "35.2 ± 2.5", "unit": "%"}
    ]},
    {"compound": "O=c1c(-c2ccc(O)cc2)coc2cc(O)ccc12", "note": "[Daidzein]", "values": [
      {"measurement": "inhibition at 8 µg/mL", "setting": "read-out: Inhibition rate", "result": "44.5 ± 2.5", "unit": "%"}
    ]},
    {"compound": "C[C@H]1O[C@H](O[C@H]2[C@H](O)[C@@H](O)[C@@H](O[C@H]3[C@H](O)[C@@H](O)C(O)O[C@@H]3CO)O[C@@H]2CO)[C@H](O)[C@@H](O)[C@@H]1N[C@H]1C=C(CO)[C@@H](O)[C@H](O)[C@H]1O", "note": "(stereo partly shown) [acarbose]", "values": [
      {"measurement": "inhibition at 350 µg/mL", "setting": "read-out: Inhibition rate", "result": "46.2 ± 3.5", "unit": "%"}
    ]},
    {"compound": "O=c1cc(-c2ccccc2)oc2cc(O)c(O)c(O)c12", "note": "[Baicalein]", "values": [
      {"measurement": "inhibition at 10 µg/mL", "setting": "read-out: Inhibition rate", "result": "38.8 ± 3.3", "unit": "%"}
    ]},
    {"compound": "O=c1c(O)c(-c2cc(O)c(O)c(O)c2)oc2cc(O)cc(O)c12", "note": "[Myricetin]", "values": [
      {"measurement": "inhibition at 1 µg/mL", "setting": "read-out: Inhibition rate", "result": "41.2 ± 1.5", "unit": "%"}
    ]},
    {"compound": "COc1ccc(C2CC(=O)c3c(O)cc(O)cc3O2)cc1O", "note": "(stereo not shown) [Hesperetin]", "values": [
      {"measurement": "inhibition at 30 µg/mL", "setting": "read-out: Inhibition rate", "result": "45.2 ± 3.2", "unit": "%"},
      {"measurement": "inhibition at 50 µg/mL", "setting": "read-out: Inhibition rate", "result": "63.4 ± 4.2", "unit": "%"}
    ]},
    {"compound": "O=C1c2c(O)cc(O)cc2OC(c2ccc(O)cc2O)C1O", "note": "(stereo not shown) [Dihydromorin]", "values": [
      {"measurement": "inhibition at 15 µg/mL", "setting": "read-out: Inhibition rate", "result": "25.7 ± 4.7", "unit": "%"}
    ]},
    {"compound": "O=c1cc(-c2ccc(O)c(O)c2)oc2cc(O)cc(O)c12", "note": "[Luteolin]", "values": [
      {"measurement": "inhibition at 1 µg/mL", "setting": "read-out: Inhibition rate", "result": "45.5 ± 2.7", "unit": "%"}
    ]},
    {"compound": "Vitexin", "values": [
      {"measurement": "Inhibition rate", "setting": "10 μg/mL", "result": "29.2 ± 1.4", "unit": "%"}
    ]},
    {"compound": "Oc1cc(O)c2cc(O)c(-c3ccc(O)c(O)c3)[o+]c2c1", "note": "[Cyanidin]", "values": [
      {"measurement": "inhibition at 0.7 µg/mL", "setting": "read-out: Inhibition rate", "result": "47.5 ± 1.4", "unit": "%"}
    ]},
    {"compound": "O=c1c(O)c(-c2ccccc2)oc2cc(O)cc(O)c12", "note": "[Galangin]", "values": [
      {"measurement": "inhibition at 100 µg/mL", "setting": "read-out: Inhibition rate", "result": "56.3 ± 4.5", "unit": "%"},
      {"measurement": "inhibition at 150 µg/mL", "setting": "read-out: Inhibition rate", "result": "84.4 ± 7.5", "unit": "%"}
    ]},
    {"compound": "COc1ccc(-c2coc3cc(O)cc(O)c3c2=O)cc1", "note": "[Biochanin A]", "values": [
      {"measurement": "inhibition at 0.7 µg/mL", "setting": "read-out: Inhibition rate", "result": "38.5 ± 2.1", "unit": "%"}
    ]},
    {"compound": "O=C(CCc1ccc(O)cc1)c1c(O)cc(O)cc1O", "note": "[Phloretin]", "values": [
      {"measurement": "inhibition at 8 µg/mL", "setting": "read-out: Inhibition rate", "result": "46.3 ± 2.7", "unit": "%"}
    ]},
    {"compound": "O=c1c(O)c(-c2ccc(O)c(O)c2)oc2cc(O)ccc12", "note": "[Fisetin]", "values": [
      {"measurement": "inhibition at 6 µg/mL", "setting": "read-out: Inhibition rate", "result": "46.5 ± 2.3", "unit": "%"}
    ]},
    {"compound": "COc1c(-c2ccc(O)c(O)c2)oc2cc(O)cc(O)c2c1=O", "note": "[3-O-methyl quercetin]", "values": [
      {"measurement": "inhibition at 2 µg/mL", "setting": "read-out: Inhibition rate", "result": "46.2 ± 1.2", "unit": "%"}
    ]},
    {"compound": "COc1ccc(-c2oc3cc(O)cc(O)c3c(=O)c2O)cc1", "note": "[Kaempferide]", "values": [
      {"measurement": "inhibition at 5 µg/mL", "setting": "read-out: Inhibition rate", "result": "30.8 ± 1.3", "unit": "%"}
    ]},
    {"compound": "Oc1cc(O)c2cc(O)c(-c3cc(O)c(O)c(O)c3)[o+]c2c1", "note": "[Delphinidin]", "values": [
      {"measurement": "inhibition at 1 µg/mL", "setting": "read-out: Inhibition rate", "result": "50.2 ± 4.3", "unit": "%"}
    ]},
    {"compound": "O=c1c(O)c(-c2ccc(O)cc2O)oc2cc(O)cc(O)c12", "note": "[Morin]", "values": [
      {"measurement": "inhibition at 1 µg/mL", "setting": "read-out: Inhibition rate", "result": "41.2 ± 2.7", "unit": "%"}
    ]},
    {"compound": "COc1ccc(-c2coc3cc(O)ccc3c2=O)cc1O", "note": "[Calycosin]", "values": [
      {"measurement": "inhibition at 6 µg/mL", "setting": "read-out: Inhibition rate", "result": "56.6 ± 4.3", "unit": "%"}
    ]},
    {"compound": "Chrysin", "values": [
      {"measurement": "Inhibition rate", "setting": "100 μg/mL", "result": "51.2 ± 5.5", "unit": "%"}
    ]},
    {"compound": "COc1ccc(-c2coc3cc(O)ccc3c2=O)cc1", "note": "[Formononetin]", "values": [
      {"measurement": "inhibition at 20 µg/mL", "setting": "read-out: Inhibition rate", "result": "60.1 ± 5.3", "unit": "%"},
      {"measurement": "inhibition at 30 µg/mL", "setting": "read-out: Inhibition rate", "result": "65.2 ± 4.3", "unit": "%"}
    ]},
    {"compound": "COc1cc(O)c2c(=O)cc(-c3ccc(O)cc3)oc2c1", "note": "[Genkwanin]", "values": [
      {"measurement": "inhibition at 35 µg/mL", "setting": "read-out: Inhibition rate", "result": "70.1 ± 5.5", "unit": "%"}
    ]},
    {"compound": "O=C1C[C@@H](c2ccc(O)cc2)Oc2cc(O)cc(O)c21", "note": "[Naringenin]", "values": [
      {"measurement": "inhibition at 25 µg/mL", "setting": "read-out: Inhibition rate", "result": "50.5 ± 4.3", "unit": "%"}
    ]},
    {"compound": "O=c1cc(-c2ccc(O)cc2)oc2cc(O)cc(O)c12", "note": "[Apigenin]", "values": [
      {"measurement": "inhibition at 6 µg/mL", "setting": "read-out: Inhibition rate", "result": "56.1 ± 4.4", "unit": "%"}
    ]}
  ]
}
